According to patent US9718804B2, “GSK-3 inhibitors” (BRISTOL-MYERS SQUIBB COMPANY, priority 2013, dated 2017):
Like-named read-outs stand apart in the source and are kept apart here.

Experiments:
[1] = target: GSK3β (Homo sapiens, UniProt P49841); assay: GSK3β kinase assay (Caliper LabChip, fluoresceinated peptide substrate); format: biochemical
Method in brief: (§1)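 Reaction: 20 h, room temperature. Quench: 35 mM EDTA. Detection: substrate/product separation by chip electrophoresis. Analysis: eleven concentrations, non-linear regression to IC50.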

[2] = target: GSK3α (Homo sapiens, UniProt P49840); assay: GSK3α kinase assay (Caliper LabChip, fluoresceinated peptide substrate); format: biochemical
Chain of GSK3α (P49840 whole entry, species assumed): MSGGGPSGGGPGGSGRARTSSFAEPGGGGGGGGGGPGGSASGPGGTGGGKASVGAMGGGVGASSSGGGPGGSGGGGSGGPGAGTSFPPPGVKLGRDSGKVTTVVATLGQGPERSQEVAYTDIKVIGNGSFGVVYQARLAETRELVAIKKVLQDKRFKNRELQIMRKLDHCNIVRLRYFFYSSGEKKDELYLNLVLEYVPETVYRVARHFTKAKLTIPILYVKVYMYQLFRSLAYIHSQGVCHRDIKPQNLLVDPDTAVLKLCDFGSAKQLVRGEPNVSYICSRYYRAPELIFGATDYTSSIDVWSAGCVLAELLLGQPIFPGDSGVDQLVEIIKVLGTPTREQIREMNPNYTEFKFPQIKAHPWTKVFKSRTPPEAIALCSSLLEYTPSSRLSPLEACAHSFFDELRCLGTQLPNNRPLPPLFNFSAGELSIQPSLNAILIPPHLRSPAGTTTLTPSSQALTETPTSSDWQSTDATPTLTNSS
Method in brief: as §1

[3] = tested on: pTau; assay: pTau assay (no method described); format: cell-based
[4] = first value of the cell, 250 pM enzyme, 20 uM ATP, 20 hours at room temperature, read-out: GSK3β/α (nM): GSK3β IC50

Chain of GSK3β (P49841 whole entry, species assumed): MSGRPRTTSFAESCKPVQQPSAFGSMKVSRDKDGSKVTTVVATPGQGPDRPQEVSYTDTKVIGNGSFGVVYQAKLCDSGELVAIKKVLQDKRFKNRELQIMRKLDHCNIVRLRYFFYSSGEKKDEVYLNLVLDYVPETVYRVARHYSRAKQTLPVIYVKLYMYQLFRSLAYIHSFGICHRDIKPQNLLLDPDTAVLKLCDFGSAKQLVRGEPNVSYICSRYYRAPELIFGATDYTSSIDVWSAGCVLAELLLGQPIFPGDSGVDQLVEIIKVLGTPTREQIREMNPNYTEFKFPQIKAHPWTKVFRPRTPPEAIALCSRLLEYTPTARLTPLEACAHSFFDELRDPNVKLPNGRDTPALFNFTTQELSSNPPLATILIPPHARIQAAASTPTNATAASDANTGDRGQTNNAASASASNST

SMILES | IC50 [1, 4] | IC50 [2] | IC50 [3] | IC50 [1]
O=C(Nc1cnccc1-c1ccccc1)c1ccnc(Nc2ccc(F)cn2)c1 [Example 8, 2-((5-Fluoropyridin-2-yl)amino)-N-(4-phenylpyridin-3-yl)isonicotinamide] | 4.1 nM | 1.9 nM | 132 nM | 
O=C(Nc1cnccc1-c1ccccc1)c1ccnc(Nc2ccc(Br)cn2)c1 [Example 63, 2-((5-Bromopyridin-2-yl)amino)-N-(4-phenylpyridin-3-yl)isonicotinamide] | 9.3 nM | 3.4 nM | 150 nM | 
O=C(Nc1cnc(F)cc1N1CCOCC1)c1ccnc(Nc2ccc(C(F)(F)F)cn2)c1 [Example 73, N-(6-Fluoro-4-morpholinopyridin-3-yl)-2-((5-(trifluoromethyl)pyridin-2-yl)amino)isonicotinamide] | 1 nM | 0.6 nM | 43 nM | 
O=C(Nc1cnc(Cl)cc1S(=O)(=O)C1CC1)c1ccnc(Nc2ccc(C(F)(F)F)cn2)c1 [Example 188, N-(6-Chloro-4-(cyclopropylsulfonyl)pyridin-3-yl)-2-((5-(trifluoromethyl)pyridin-2-yl)amino)isonicotinamide] | 5 nM | 3.3 nM | 150 nM | 
O=C(Nc1cnc(Cl)cc1C1(c2ccccc2)OCCO1)c1ccnc(Nc2ccc(C(F)(F)F)cn2)c1 [Example 95, N-(6-Chloro-4-(2-phenyl-1,3-dioxolan-2-yl)pyridin-3-yl)-2-((5-(trifluoromethyl)pyridin-2-yl)amino)isonicotinamide] | 10 nM | 5.5 nM | 910 nM | 
CC(C)(C)C(=O)Nc1cccc(Nc2cc(C(=O)Nc3cncc(-c4ccccc4F)c3)ccn2)n1 [Example 154, N-(5-(2-Fluorophenyl)pyridin-3-yl)-2-((6-pivalamidopyridin-2-yl)amino)isonicotinamide] | 9.2 nM | 2.2 nM | 1100 nM | 
C[C@H]1COCCN1c1ccncc1NC(=O)c1ccnc(Nc2ccc(C(F)(F)F)cn2)c1 [Example 20, (S)—N-(4-(3-Methylmorpholino)pyridin-3-yl)-2-((5-(trifluoromethyl)pyridin-2-yl)amino)isonicotinamide] | 0.1 nM | 0.09 nM | 0.66 nM | 
CC(C)(C)COc1cc(F)ncc1NC(=O)c1ccnc(Nc2ccc(C(F)(F)F)cn2)c1 [Example 75, N-(6-Fluoro-4-(neopentyloxy)pyridin-3-yl)-2-((5-(trifluoromethyl)pyridin-2-yl)amino)isonicotinamide] | 5.1 nM | 2.4 nM | 830 nM | 
CCOc1ccncc1NC(=O)c1ccnc(Nc2ccc(C#N)cn2)c1 [Example 16, N-(4-Ethoxypyridin-3-yl)-2-((5-cyanopyridin-2-yl)amino)isonicotinamide] | 1.1 nM | 0.62 nM | 12 nM | 
O=C(Nc1cnc(Cl)cc1SC1CC1)c1ccnc(Nc2ccc(C(F)(F)F)cn2)c1 [Example 176, N-(6-Chloro-4-(cyclopropylthio)pyridin-3-yl)-2-((5-(trifluoromethyl)pyridin-2-yl)amino)isonicotinamide] | 11 nM | 7 nM | 1100 nM | 
Cc1nc(Nc2cc(C(=O)Nc3cncc(-c4ccccc4F)c3)ccn2)ccc1C#N [Example 155, 2-((5-Cyano-6-methylpyridin-2-yl)amino)-N-(5-(2-fluorophenyl)pyridin-3-yl)isonicotinamide] | 3.6 nM | 1.2 nM | 570 nM | 
Cc1cc(C(O)C2CC2)c(NC(=O)c2ccnc(Nc3ccc(C(F)(F)F)cn3)c2)cn1 (stereo not drawn) [Example 106, N-(4-(Cyclopropyl(hydroxy)methyl)-6-methylpyridin-3-yl)-2-((5-(trifluoromethyl)pyridin-2-yl)amino)isonicotinamide] | 0.25 nM | 0.49 nM | 22 nM | 
CC1(c2cnncc2NC(=O)c2ccnc(Nc3ccc(C(F)(F)F)cn3)c2)OCCO1 [Example 200, N-(5-(2-Methyl-1,3-dioxolan-2-yl)pyridazin-4-yl)-2-((5-(trifluoromethyl)pyridin-2-yl)amino)isonicotinamide] | 0.62 nM | 0.39 nM | 3.2 nM | 
O=C(Nc1cncc(-c2ccccc2F)c1)c1ccnc(Nc2ccc3ccccc3n2)c1 [Example 142, N-(5-(2-Fluorophenyl)pyridin-3-yl)-2-(quinolin-2-ylamino)isonicotinamide] | 23 nM | 5.6 nM | 2100 nM | 
O=C(Nc1cncc(OCC2CC2)c1)c1ccnc(Nc2cccc(C(F)(F)F)n2)c1 [Example 124, N-(5-(Cyclopropylmethoxy)pyridin-3-yl)-2-((6-(trifluoromethyl)pyridin-2-yl)amino)isonicotinamide] | 9.4 nM | 3.5 nM | 3600 nM | 
CC[C@@]1(c2cc(Cl)ncc2NC(=O)c2ccnc(Nc3ccc(C(F)(F)F)cn3)c2)OC[C@H](C)O1 [Example 89, N-(6-Chloro-4-((2R,4S)-2-ethyl-4-methyl-1,3-dioxolan-2-yl)pyridin-3-yl)-2-((5-(trifluoromethyl)pyridin-2-yl)amino)isonicotinamide] | 1.6 nM | 1.7 nM | 340 nM | 
O=C(Nc1cncc(-c2ccccc2F)c1)c1ccnc(Nc2ccc(C(F)(F)F)cn2)c1 [Example 127, N-(5-(2-Fluorophenyl)pyridin-3-yl)-2-((5-(trifluoromethyl)pyridin-2-yl)amino)isonicotinamide] | 11 nM | 6 nM | 1750 nM | 
O=C(Nc1cnc(F)cc1OCC(F)F)c1ccnc(Nc2ccc(F)cn2)c1 [Example 114, N-(4-(2,2-Difluoroethoxy)-6-fluoropyridin-3-yl)-2-((5-fluoropyridin-2-yl)amino)isonicotinamide] | 4.4 nM | 1.5 nM | 220 nM | 
O=C(Nc1cnccc1-c1ccccc1)c1cc(Nc2ccc(C(F)(F)F)cn2)ncc1F [Example 167, 5-Fluoro-N-(4-phenylpyridin-3-yl)-2-((5-(trifluoromethyl)pyridin-2-yl)amino)isonicotinamide] | 1.8 nM | 0.55 nM | 230 nM | 
CC1OC(C)(c2cc(Cl)ncc2NC(=O)c2ccnc(Nc3ccc(C(F)(F)F)cn3)c2)OC1C (stereo not drawn) [Example 78, N-(6-Chloro-4-(2,4,5-trimethyl-1,3-dioxolan-2-yl)pyridin-3-yl)-2-((5-(trifluoromethyl)pyridin-2-yl)amino)isonicotinamide] | 4.5 nM | 3.2 nM | 170 nM | 
CCC1(c2cc(Cl)ncc2NC(=O)c2ccnc(Nc3ccc(C(F)(F)F)cn3)c2)OC(C)C(C)O1 (stereo not drawn) [Example 81, N-(6-Chloro-4-(2-ethyl-4,5-dimethyl-1,3-dioxolan-2-yl)pyridin-3-yl)-2-((5-(trifluoromethyl)pyridin-2-yl)amino)isonicotinamide] | 6.7 nM | 4 nM | 1900 nM | 
O=C(Nc1cnc(Cl)cc1N1CCC(F)(F)CC1)c1ccnc(Nc2ccc(C(F)(F)F)cn2)c1 [Example 70, N-(6-Chloro-4-(4,4-difluoropiperidin-1-yl)pyridin-3-yl)-2-((5-(trifluoromethyl)pyridin-2-yl)amino)isonicotinamide] | 7.6 nM | 2.6 nM | 564 nM | 
O=C(Nc1cnc(Cl)cc1C(O)C1CC1)c1ccnc(Nc2ccc(C(F)(F)F)cn2)c1 (stereo not drawn) [Example 93, N-(6-Chloro-4-(cyclopropyl(hydroxy)methyl)pyridin-3-yl)-2-((5-(trifluoromethyl)pyridin-2-yl)amino)isonicotinamide] | 2.6 nM | 0.78 nM | 110 nM | 
O=C(Nc1cncc(-c2cc(F)ccc2F)c1)c1ccnc(Nc2ccc(C(F)(F)F)cn2)c1 [Example 129, N-(5-(2,5-Difluorophenyl)pyridin-3-yl)-2-((5-(trifluoromethyl)pyridin-2-yl)amino)isonicotinamide] | 18 nM | 9.8 nM | 2100 nM | 
Cc1ccnc(Nc2cc(C(=O)Nc3cncc(-c4ccccc4F)c3)ccn2)c1 [Example 132, N-(5-(2-Fluorophenyl)pyridin-3-yl)-2-((4-methylpyridin-2-yl)amino)isonicotinamide] |  | 6.2 nM | 1900 nM | 9 nM
O=C(Nc1cncc(-c2ccccc2F)c1)c1ccnc(Nc2ccc(N3CCOCC3)cn2)c1 [Example 140, N-(5-(2-Fluorophenyl)pyridin-3-yl)-2-((5-morpholinopyridin-2-yl)amino)isonicotinamide] | 6.7 nM | 10 nM | 980 nM | 
O=C(Nc1cncnc1N1CCOCC1)c1ccnc(Nc2ccc(C(F)(F)F)cn2)c1 [Example 195, N-(4-Morpholinopyrimidin-5-yl)-2-((5-(trifluoromethyl)pyridin-2-yl)amino)isonicotinamide] | 17 nM | 7.9 nM | 710 nM | 
O=C(Nc1cnccc1N1CCC(F)(F)CC1)c1ccnc(Nc2ccc(C(F)(F)F)cn2)c1 [Example 24, N-(4-(4,4-Difluoropiperidin-1-yl)pyridin-3-yl)-2-((5-(trifluoromethyl)pyridin-2-yl)amino)isonicotinamide] | 0.69 nM | 0.49 nM | 4.6 nM | 
Cn1ncc(NC(=O)c2ccnc(Nc3ccc(C(F)(F)F)cn3)c2)c1C1(C)OCCO1 [Example 207, N-(1-Methyl-5-(2-methyl-1,3-dioxolan-2-yl)-1H-pyrazol-4-yl)-2-((5-(trifluoromethyl)pyridin-2-yl)amino)isonicotinamide] | 0.09 nM | 0.1 nM | 1.4 nM | 
O=C(Nc1cnccc1-c1ccc(Cl)cc1)c1ccnc(Nc2ccc(Cl)cn2)c1 [Example 60, N-(4-(4-Chlorophenyl)pyridin-3-yl)-2-((5-chloropyridin-2-yl)amino)isonicotinamide] | 2.7 nM | 1.2 nM | 270 nM | 
